Test results as given in patent US10780090B2, “Heteroaryl compounds useful as inhibitors of SUMO activating enzyme” (Millennium Pharmaceuticals, Inc., priority 2014, dated 2020).
pIC50: −log10 of the molar value.

Biological target: recombinant human SAE enzyme (Homo sapiens (Human), UniProt Q9UBT2)
Experiment: SAE HTRF enzyme assay
Assay type: biochemical
Details: for pIC50: class symbols A/B/C; for inhibition at 0.111 µM: read-out: Percent Inhibition; for IC50: SAE inhibition, class symbols, legend in nM
Outline: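 Enzyme reaction: 50 mM HEPES pH 7.5, 5 mM MgCl2, 250 μM GSH, 0.05% BSA, 0.5 μM ATP, 0.01 μM Ubc9-GST, 0.125 μM Sumo-Flag, 0.11 nM SAE; 105 min, 24° C. Stop/detect, 2 h, then HTRF. % inh or IC50.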

[1] = SAE inhibition at compound concentration 0.111 μM

recombinant human SAE enzyme, sequence (Q9UBT2 whole entry): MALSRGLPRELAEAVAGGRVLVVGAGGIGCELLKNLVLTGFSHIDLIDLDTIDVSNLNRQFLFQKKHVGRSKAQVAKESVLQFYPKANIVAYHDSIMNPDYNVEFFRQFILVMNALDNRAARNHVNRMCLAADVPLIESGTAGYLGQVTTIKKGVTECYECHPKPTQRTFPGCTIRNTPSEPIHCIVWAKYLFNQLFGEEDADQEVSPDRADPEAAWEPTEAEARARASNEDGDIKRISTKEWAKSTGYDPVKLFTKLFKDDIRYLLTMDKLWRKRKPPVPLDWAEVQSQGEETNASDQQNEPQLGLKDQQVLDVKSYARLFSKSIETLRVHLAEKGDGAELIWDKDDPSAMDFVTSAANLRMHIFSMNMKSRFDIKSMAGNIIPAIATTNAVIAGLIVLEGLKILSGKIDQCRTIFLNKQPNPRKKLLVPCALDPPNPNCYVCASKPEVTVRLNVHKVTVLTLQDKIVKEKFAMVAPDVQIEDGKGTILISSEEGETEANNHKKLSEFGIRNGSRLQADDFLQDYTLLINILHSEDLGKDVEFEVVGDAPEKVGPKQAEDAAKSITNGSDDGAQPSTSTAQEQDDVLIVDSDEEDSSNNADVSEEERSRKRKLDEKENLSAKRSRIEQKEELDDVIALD
recombinant human SAE enzyme, sequence (Q9UBE0 whole entry partner): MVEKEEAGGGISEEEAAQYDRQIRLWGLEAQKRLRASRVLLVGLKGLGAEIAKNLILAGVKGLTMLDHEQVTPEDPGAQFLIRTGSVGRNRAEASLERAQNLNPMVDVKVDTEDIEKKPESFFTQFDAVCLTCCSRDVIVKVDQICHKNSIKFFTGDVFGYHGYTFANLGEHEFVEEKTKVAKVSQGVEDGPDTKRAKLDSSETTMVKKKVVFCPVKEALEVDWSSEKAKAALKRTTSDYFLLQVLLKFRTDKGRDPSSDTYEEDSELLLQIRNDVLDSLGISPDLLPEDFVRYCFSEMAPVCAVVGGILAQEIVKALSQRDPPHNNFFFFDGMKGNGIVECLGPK

CN[C@@H](c1cccc(Cl)c1)c1cc(C(=O)c2cncnc2N[C@@H]2C[C@H](COS(N)(=O)=O)[C@@H](O)C2)sc1Cl.CN[C@H](c1cccc(Cl)c1)c1cc(C(=O)c2cncnc2N[C@@H]2C[C@H](COS(N)(=O)=O)[C@@H](O)C2)sc1Cl (mixture of isomers) [I-95, [(1R,2S,4R)-4-{[5-({5-Chloro-4-[(S)-(3-chlorophenyl)(methylamino)methyl]-2-thienyl}carbonyl)pyrimidin-4-yl]amino}-2-hydroxycyclopentyl]methyl sulfamate and [(1R,2S,4R)-4 {[5-({5-Chloro-4-[(R)-(3-chlorophenyl)(methylamino)methyl]-2-thienyl}carbonyl)pyrimidin-4-yl]amino}-2-hydroxycyclopentyl]methyl sulfamate]
Percent Inhibition (Concentration 0.111 μM): 97 | pIC50: > 8.00

N#Cc1ccccc1OCc1csc(C(=O)c2cncnc2N[C@@H]2C[C@H](COS(N)(=O)=O)[C@@H](O)C2)c1 [I-124, [(1R,2S,4R)-4-{[5-({4-[(2-cyanophenoxy)methyl]-2-thienyl}carbonyl)pyrimidin-4-yl]amino}-2-hydroxycyclopentyl]methyl sulfamate]
inhibition at 0.111 µM (Concentration 0.111 μM): 97% | pIC50: > 8.00

NS(=O)(=O)OC[C@H]1C[C@@H](Nc2ncncc2C(=O)c2cc([C@@H]3OCCc4c(Cl)cccc43)cs2)C[C@@H]1O (single isomer, unassigned) [I-301b, [(1R,2S,4R)-4-{[5-({4-[(1R)-5-chloro-3,4-dihydro-1H-isochromen-1-yl]-2-thienyl}carbonyl)pyrimidin-4-yl]amino}-2-hydroxycyclopentyl]methyl sulfamate or [(1R,2S,4R)-4-{[5-({4-[(1S)-5-chloro-3,4-dihydro-1H-isochromen-1-yl]-2-thienyl}carbonyl)pyrimidin-4-yl]amino}-2-hydroxycyclopentyl]methyl sulfamate]
Percent Inhibition [1]: 100% | IC50: < 10 nM

NS(=O)(=O)OCC1CC(Nc2ncncc2C(=O)c2cc(C3OCCc4ccc(Cl)cc43)c(Cl)s2)CC1O (mixture of isomers) [I-282, [(1R,2S,4R)-4-{[5-({5-chloro-4-[(1R)-7-chloro-3,4-dihydro-1H-isochromen-1-yl]-2-thienyl}carbonyl)pyrimidin-4-yl]amino}-2-hydroxycyclopentyl]methyl sulfamate and [(1R,2S,4R)-4-{[5-({5-chloro-4-[(1S)-7-chloro-3,4-dihydro-1H-isochromen-1-yl]-2-thienyl}carbonyl)pyrimidin-4-yl]amino}-2-hydroxycyclopentyl]methyl sulfamate]
Percent Inhibition [1]: 100% | IC50: < 10 nM

NS(=O)(=O)OC[C@H]1C[C@@H](Nc2ncncc2C(=O)c2cc(C3SCCc4ccc(Cl)cc43)cs2)[C@H](O)[C@@H]1O (single isomer, unassigned) [I-278a, [(1R,2R,3S,4R)-4-{[5-({4-[(1R)-7-chloro-3,4-dihydro-1H-isothiochromen-1-yl]-2-thienyl}carbonyl)pyrimidin-4-yl]amino}-2,3-dihydroxycyclopentyl]methyl sulfamate or [(1R,2R,3S,4R)-4-{[5-({4-[(1S)-7-chloro-3,4-dihydro-1H-isothiochromen-1-yl]-2-thienyl}carbonyl)pyrimidin-4-yl]amino}-2,3-dihydroxycyclopentyl]methyl sulfamate]
Percent Inhibition (Concentration 0.111 μM): 77 | pIC50: 7.00 to 8.00

NS(=O)(=O)OC[C@H]1C[C@@H](Nc2ncncc2C(=O)c2cc([C@@H]3OCC(F)(F)c4ccccc43)cs2)C[C@@H]1O (single isomer, unassigned) [I-293b, [(1R,2S,4R)-4-{[5-({4-[(1R)-4,4-difluoro-3,4-dihydro-1H-isochromen-1-yl]-2-thienyl}carbonyl)pyrimidin-4-yl]amino}-2-hydroxycyclopentyl]methyl sulfamate or [(1R,2S,4R)-4-{[5-({4-[(1S)-4,4-difluoro-3,4-dihydro-1H-isochromen-1-yl]-2-thienyl}carbonyl)pyrimidin-4-yl]amino}-2-hydroxycyclopentyl]methyl sulfamate]
Percent Inhibition [1]: 98% | IC50: < 10 nM

Cc1sc(C(=O)c2cncnc2N[C@@H]2C[C@H](COS(N)(=O)=O)[C@@H](O)C2)cc1[C@@H]1OCOc2ccccc21 (single isomer, unassigned) [I-280b, [(1R,2S,4R)-4-{[5-({4-[(4R)-4H-1,3-benzodioxin-4-yl]-5-methyl-2-thienyl}carbonyl)pyrimidin-4-yl]amino}-2-hydroxycyclopentyl]methyl sulfamate or [(1R,2S,4R)-4-{[5-({4-[(4S)-4H-1,3-benzodioxin-4-yl]-5-methyl-2-thienyl}carbonyl)pyrimidin-4-yl]amino}-2-hydroxycyclopentyl]methyl sulfamate]
Percent Inhibition [1]: 100% | IC50: < 10 nM

NS(=O)(=O)OC[C@H]1C[C@@H](Nc2ncncc2C(=O)c2cc([C@@H]3OCCc4ccc(Br)cc43)cs2)C[C@@H]1O.NS(=O)(=O)OC[C@H]1C[C@@H](Nc2ncncc2C(=O)c2cc([C@H]3OCCc4ccc(Br)cc43)cs2)C[C@@H]1O (mixture of isomers) [I-268, [(1R,2S,4R)-4-{[5-({4-[(1R)-7-bromo-3,4-dihydro-1H-isochromen-1-yl]-2-thienyl}carbonyl)pyrimidin-4-yl]amino}-2-hydroxycyclopentyl]methyl sulfamate and [(1R,2S,4R)-4-{[5-({4-[(1S)-7-bromo-3,4-dihydro-1H-isochromen-1-yl]-2-thienyl}carbonyl)pyrimidin-4-yl]amino}-2-hydroxycyclopentyl]methyl sulfamate]
Percent Inhibition (Concentration 0.111 μM): 100 | pIC50: > 8.00

NS(=O)(=O)OC[C@H]1C[C@@H](Nc2ncncc2C(=O)c2cc(C3NCCc4ccc(Cl)cc43)cs2)C[C@@H]1O (single isomer, unassigned) [I-274b, [(1R,2S,4R)-4-{[5-({4-[(1R)-7-chloro-1,2,3,4-tetrahydroisoquinolin-1-yl]-2-thienyl}carbonyl)pyrimidin-4-yl]amino}-2-hydroxycyclopentyl]methyl sulfamate or [(1R,2S,4R)-4-{[5-({4-[(1S)-7-chloro-1,2,3,4-tetrahydroisoquinolin-1-yl]-2-thienyl}carbonyl)pyrimidin-4-yl]amino}-2-hydroxycyclopentyl]methyl sulfamate]
Percent Inhibition (Concentration 0.111 μM): 81 | pIC50: 7.00 to 8.00

NS(=O)(=O)OC[C@H]1C[C@@H](Nc2ncncc2C(=O)c2cc([C@@]3(c4ccccc4)CCCO3)cs2)C[C@@H]1O (single isomer, unassigned) [I-32a, [(1R,2S,4R)-2-hydroxy-4-{[5-({4-[(2S)-2-phenyltetrahydrofuran-2-yl]-2-thienyl}carbonyl)pyrimidin-4-yl]amino}cyclopentyl]methyl sulfamate or [(1R,2S,4R)-2-hydroxy-4-{[5-({4-[(2R)-2-phenyltetrahydrofuran-2-yl]-2-thienyl}carbonyl)pyrimidin-4-yl]amino}cyclopentyl]methyl sulfamate]
Percent Inhibition (Concentration 0.111 μM): 98 | pIC50: > 8.00

NS(=O)(=O)OC[C@H]1C[C@@H](Nc2ncncc2C(=O)c2cc(Cc3cccc(Cl)c3)c(Cl)s2)C[C@@H]1O [I-107, {(1R,2S,4R)-4-[(5-{[5-chloro-4-(3-chlorobenzyl)-2-thienyl]carbonyl}pyrimidin-4-yl)amino]-2-hydroxycyclopentyl}methyl sulfamate]
inhibition at 0.111 µM (Concentration 0.111 μM): 96% | pIC50: > 8.00
